Reference: the supplement of paper PMC4862054
Where “and” joins values, the source holds several entries; their conditions need not be identical. Equal entries are not always repeated.

How the values were obtained:
Settings in all cases: incubation time: 72 h
[1] = system: DU-4475; assay: normalised viability (% of control), CellTiter-Blue; higher = more viable cells (about 100 = DMSO control)
Protocol: (§1)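 DSRT, CellTiter-Blue viability, 72 h incubation. Signal is normalised to DMSO and benzethonium chloride controls. Value is the normalised response at dose 6.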

[2] = system: HDQ-P1; assay: as above
Protocol: as §1

[3] = system: MDA-MB-453; assay: as above
Protocol: as §1

[4] = system: CAL-148; assay: as above
Protocol: as §1

[5] = system: CAL-51; assay: as above
Protocol: as §1

[6] = system: CAL-85-1; assay: as above
Protocol: as §1

[7] = system: HDQ-P1; assay: as above; remark: listed apart in the source
Protocol: (§2)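 DSRT, CellTiter-Blue viability, 72 h incubation. Signal is normalised to DMSO and benzethonium chloride controls. Value is the normalised response at dose 8.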

[8] = system: MDA-MB-453; assay: as above; remark: listed apart in the source
Protocol: as §2

[9] = system: CAL-148; assay: as above; remark: listed apart in the source
Protocol: as §2

[10] = system: CAL-51; assay: as above; remark: listed apart in the source
Protocol: as §2

[11] = system: CAL-85-1; assay: as above; remark: listed apart in the source
Protocol: as §2

[12] = system: HCC1143; assay: normalised response (% of control), CellTiter-Glo; higher = more viable cells (100 = DMSO, 0 = benzethonium chloride kill control)
Protocol: (§3)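 DSRT, 72 h incubation, CellTox Green / CellTiter-Glo readout. Signal is normalised to DMSO and benzethonium chloride controls. Value is the normalised response at the highest dose.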

[13] = system: HCC1599; assay: as above
Protocol: as §3

[14] = system: Hs578T; assay: as above
Protocol: as §3

[15] = system: MCF-10A; assay: as above
Protocol: as §3

[16] = system: SK-BR-3; assay: as above
Protocol: as §3

[17] = system: DU-4475; assay: as above
Protocol: as §3

[18] = system: HDQ-P1; assay: as above
Protocol: as §3

[19] = system: MDA-MB-453; assay: as above
Protocol: as §3

[20] = system: BT-474; assay: as above
Protocol: as §3

[21] = system: MDA-MB-468; assay: as above
Protocol: as §3

[22] = system: MDA-MB-231; assay: as above
Protocol: as §3

[23] = system: CAL-148; assay: as above
Protocol: as §3

[24] = system: HCC1937; assay: as above
Protocol: as §3

[25] = system: MFM-223; assay: as above
Protocol: as §3

[26] = system: BT-549; assay: as above
Protocol: as §3

[27] = system: CAL-51; assay: as above
Protocol: as §3

[28] = system: CAL-120; assay: as above
Protocol: as §3

[29] = system: MDA-MB-436; assay: as above
Protocol: as §3

[30] = system: CAL-85-1; assay: as above
Protocol: as §3

[31] = system: HCC1143; assay: normalised response (% of control), CellTox Green; higher = less cell death (100 = DMSO, 0 = benzethonium chloride kill control)
Summary of the method: (§4)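 A 20 µl suspension of breast cancer cells was seeded into each well of 384-well plates containing compound at 5 concentrations in 10-fold steps over a compound-specific 10,000-fold range. After 72 h incubation, CellTox Green fluorescence (485/520 nm) was read first, and CellTiter-Glo luminescence was read after 10 min at room temperature. Each plate was normalised against 0.1 % DMSO (100) and a positive kill control (0), and each value is the normalised signal at one concentration.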

[32] = system: HCC1599; assay: as above
Summary of the method: as §4

[33] = system: Hs578T; assay: as above
Summary of the method: as §4

[34] = system: MCF-10A; assay: as above
Summary of the method: as §4

[35] = system: DU-4475; assay: as above
Summary of the method: as §4

[36] = system: HDQ-P1; assay: as above
Summary of the method: as §4

[37] = system: MDA-MB-453; assay: as above
Summary of the method: as §4

[38] = system: BT-474; assay: as above
Summary of the method: as §4

[39] = system: MDA-MB-468; assay: as above
Summary of the method: as §4

[40] = system: MDA-MB-231; assay: as above
Summary of the method: as §4

[41] = system: CAL-148; assay: as above
Summary of the method: as §4

[42] = system: HCC1937; assay: as above
Summary of the method: as §4

[43] = system: MFM-223; assay: as above
Summary of the method: as §4

[44] = system: BT-549; assay: as above
Summary of the method: as §4

[45] = system: CAL-51; assay: as above
Summary of the method: as §4

[46] = system: CAL-120; assay: as above
Summary of the method: as §4

[47] = system: MDA-MB-436; assay: as above
Summary of the method: as §4

[48] = system: CAL-85-1; assay: as above
Summary of the method: as §4

## CO[C@H]1C[C@@H]2CC[C@@H](C)[C@@](O)(O2)C(=O)C(=O)N2CCCC[C@H]2C(=O)O[C@H]([C@H](C)C[C@@H]2CC[C@@H](O)[C@H](OC)C2)CC(=O)[C@H](C)/C=C(\C)[C@@H](O)[C@@H](OC)C(=O)[C@H](C)C[C@H](C)/C=C/C=C/C=C/1C [Sirolimus] (30 nM)
[1]
  normalised viability: 48.5%
[2]
  normalised viability: 60.8%
[3]
  normalised viability: 29%
[4]
  normalised viability: 46.8%
[5]
  normalised viability: 29.3%
[6]
  normalised viability: 56.1%

## CC[C@@H]1C(=O)N(C)c2cnc(Nc3ccc(C(=O)N[C@H]4CC[C@H](N5CCN(CC6CC6)CC5)CC4)cc3OC)nc2N1C(C)C [Volasertib] (30 nM)
[1]
  normalised viability: 58.8%
[2]
  normalised viability: 49.7%
[3]
  normalised viability: 31.5%
[4]
  normalised viability: 25.4%
[5]
  normalised viability: 40.5%
[6]
  normalised viability: 45.9%

## C[C@@H]1C[C@H]2[C@@H]3CCC4=CC(=O)C=C[C@]4(C)[C@@]3(F)[C@@H](O)C[C@]2(C)[C@@]1(O)C(=O)CO [Dexamethasone] (300 nM)
[1]
  normalised viability: 99%
[2]
  normalised viability: 69.5%
[3]
  normalised viability: 73.7%
[4]
  normalised viability: 105%
[5]
  normalised viability: 99.4%
[6]
  normalised viability: 99.3%

## CC(C)C(=O)Nc1ccc([N+](=O)[O-])c(C(F)(F)F)c1 [Flutamide] (300 nM)
[1]
  normalised viability: 113%
[2]
  normalised viability: 93.6%
[3]
  normalised viability: 108%
[4]
  normalised viability: 104%
[5]
  normalised viability: 105%
[6]
  normalised viability: 98.3%

## C[C@]12C=CC(=O)C=C1CC[C@@H]1[C@@H]2C(=O)C[C@@]2(C)[C@H]1CC[C@]2(O)C(=O)CO [Prednisone] (300 nM)
[1]
  normalised viability: 108%
[2]
  normalised viability: 50.2%
[3]
  normalised viability: 91.8%
[4]
  normalised viability: 102%
[5]
  normalised viability: 104%
[6]
  normalised viability: 102%

## NC(=O)NO [Hydroxyurea] (3000 nM)
[1]
  normalised viability: 91.3%
[2]
  normalised viability: 91.3%
[3]
  normalised viability: 109%
[4]
  normalised viability: 108%
[5]
  normalised viability: 103%
[6]
  normalised viability: 110%

## Cn1nnc2c(C(N)=O)ncn2c1=O [Temozolomide] (300 nM)
[1]
  normalised viability: 116%
[2]
  normalised viability: 72.5%
[3]
  normalised viability: 93.8%
[4]
  normalised viability: 89.2%
[5]
  normalised viability: 88.4%
[6]
  normalised viability: 104%

## CCCCCOC(=O)Nc1nc(=O)n([C@@H]2O[C@H](C)[C@@H](O)[C@H]2O)cc1F [Capecitabine] (3000 nM)
[7]
  normalised viability: 89.4% and 86.4%
[8]
  normalised viability: 95.7% and 93.7%
[9]
  normalised viability: 98.8% and 92.8%
[10]
  normalised viability: 109% and 96%
[11]
  normalised viability: 82.3% and 95.4%

## CCCCCOC(=O)Nc1nc(=O)n([C@@H]2O[C@H](C)[C@@H](O)[C@H]2O)cc1F [Capecitabine] (300 nM)
[2]
  normalised viability: 62.7% and 83.6%
[3]
  normalised viability: 108% and 94.3%
[4]
  normalised viability: 98% and 94.3%
[5]
  normalised viability: 103% and 96.5%
[6]
  normalised viability: 92.1% and 98.6%

## CCc1cnn2c(NCc3ccc[n+]([O-])c3)cc(N3CCCC[C@H]3CCO)nc12 [Dinaciclib] (1000 nM)
[12]
  normalised response: 19.3%
[13]
  normalised response: 12.3%
[14]
  normalised response: 17.1%
[15]
  normalised response: 21.3%
[16]
  normalised response: 2.06%
[17]
  normalised response: 21.8%
[18]
  normalised response: 23%
[19]
  normalised response: 20.6%
[20]
  normalised response: 20.2%
[21]
  normalised response: 6.62%
[22]
  normalised response: 6.98%
[23]
  normalised response: 67.5%
[24]
  normalised response: 27.8%
[25]
  normalised response: 11.5%
[26]
  normalised response: 14%
[27]
  normalised response: 14.3%
[28]
  normalised response: 38.1%
[29]
  normalised response: 19.3%
[30]
  normalised response: 8.86%
[31]
  normalised response: 88.2%
[32]
  normalised response: 74.5%
[33]
  normalised response: 36.3%
[34]
  normalised response: 47.1%
[35]
  normalised response: 90.4%
[36]
  normalised response: 48.4%
[37]
  normalised response: 88.2%
[38]
  normalised response: 88.3%
[39]
  normalised response: 31.8%
[40]
  normalised response: -18.6%
[41]
  normalised response: 46.3%
[42]
  normalised response: 83.6%
[43]
  normalised response: 42.2%
[44]
  normalised response: 81.4%
[45]
  normalised response: 71.8%
[46]
  normalised response: 80.6%
[47]
  normalised response: 86.5%
[48]
  normalised response: 4.91%

## Cn1cc(C[C@@H](N)C(=O)O)c2ccccc21 [1-methyl-D-tryptophan] (5000 nM)
[12]
  normalised response: 102%
[13]
  normalised response: 87.9%
[14]
  normalised response: 97%
[15]
  normalised response: 97.4%
[16]
  normalised response: 93.2%
[17]
  normalised response: 92.9%
[18]
  normalised response: 111%
[19]
  normalised response: 91.4%
[20]
  normalised response: 96.4%
[21]
  normalised response: 96.7%
[22]
  normalised response: 95.7%
[23]
  normalised response: 85.7%
[24]
  normalised response: 99.5%
[25]
  normalised response: 92.5%
[26]
  normalised response: 97.8%
[27]
  normalised response: 107%
[28]
  normalised response: 101%
[29]
  normalised response: 95.1%
[30]
  normalised response: 98.3%
[31]
  normalised response: 124%
[32]
  normalised response: 98%
[33]
  normalised response: 101%
[34]
  normalised response: 90.3%
[35]
  normalised response: 96.5%
[36]
  normalised response: 60.4%
[37]
  normalised response: 99.9%
[38]
  normalised response: 99.7%
[39]
  normalised response: 53%
[40]
  normalised response: 99.5%
[41]
  normalised response: 105%
[42]
  normalised response: 106%
[43]
  normalised response: 103%
[44]
  normalised response: 90%
[45]
  normalised response: 102%
[46]
  normalised response: 99.4%
[47]
  normalised response: 93.1%
[48]
  normalised response: 106%

## N[C@@H](Cc1ccc(N(CCCl)CCCl)cc1)C(=O)O [Melphalan] (12500 nM)
[12]
  normalised response: 0.96%
[13]
  normalised response: 0.01%
[14]
  normalised response: -0.1%
[15]
  normalised response: 0.08%
[16]
  normalised response: -0.14%
[17]
  normalised response: 0.09%
[18]
  normalised response: 0.84%
[19]
  normalised response: 0.28%
[20]
  normalised response: 2.03%
[21]
  normalised response: 0.28%
[22]
  normalised response: 0.1%
[23]
  normalised response: 1.23%
[24]
  normalised response: 3.24%
[25]
  normalised response: 0.21%
[26]
  normalised response: 0.03%
[27]
  normalised response: 0.13%
[28]
  normalised response: 3.52%
[29]
  normalised response: 0.88%
[30]
  normalised response: 0.13%
[31]
  normalised response: -23.3%
[32]
  normalised response: 18.8%
[33]
  normalised response: -177%
[34]
  normalised response: -119%
[35]
  normalised response: -7.06%
[36]
  normalised response: -14.5%
[37]
  normalised response: -17.4%
[38]
  normalised response: -70.3%
[39]
  normalised response: -317%
[40]
  normalised response: -127%
[41]
  normalised response: -8.15%
[42]
  normalised response: -39.4%
[43]
  normalised response: -19.4%
[44]
  normalised response: -143%
[45]
  normalised response: -37.5%
[46]
  normalised response: -41.5%
[47]
  normalised response: -19.3%
[48]
  normalised response: -78.3%
